Article PMC10993450, “New benzimidazole derivative compounds with in vitro fasciolicidal properties” (Parasites & Vectors, 2024)
“And” between values parts separate entries of the source, which are not always exact repeats. Equal entries are not always repeated. “Also recorded” adds a separate entry of the source. Where two headings read alike, the source gives them in different places.

Assays:
[1] = test system: Fasciola hepatica eggs (ABZ-resistant isolate); experiment: Egg hatch test (EHT), ABZ-resistant isolate; format: cell-based; settings: 5 µM, mean ± SEM
From the text: F. hepatica eggs were recovered after washing the gallbladder of three naturally infected sheep belonging to a flock suspected to be resistant to ABZ. From these eggs, metacercariae were produced at the Centro de Investigaciones de Mabegondo (AGACAL, Xunta de Galicia, Spain) following a previous protocol. These metacercariae were used to infect eight sheep with a dose of 200 metacercariae. The infection was confirmed individually 3 months after the infection by coprological analysis using a sedimentation technique. At that point, sheep were randomly located in two groups of four animals: one treated with a therapeutic dose of ABZ (7.5 mg/kg) and the other one only with water, as control group. To assess the efficacy of ABZ in this isolate, all sheep were humanely euthanized by an intravenous administration of a lethal dose of sodium pentobarbital (Dolethal®, Vetoquinol, Spain) 2 weeks later for fluke recovery and counting. Afterwards, the in vivo efficacy of ABZ was calculated as the percentage of adult worm reduction compared with the untreated control. Additionally, the number of eggs per gram of feces (EPG) was estimated on the treatment day (mentioned as day 0) and 14 days later to determine drug efficacy by means of the fecal egg count reduction test (FECRT).
During the necropsy, gallbladders from sheep belonging to the untreated group were taken to collect the eggs and carry out the in vitro EHT, while flukes collected from livers were used to conduct the adult viability test (AVT).
Those BZDs with an activity higher than 80% at a concentration of 10 µM were also screened on eggs and adults from the ABZ resistant isolate.
The in vitro EHT described in the current study was based on previous studies. Briefly, 100–120 eggs were incubated in 990 µL of water and 10 μL of each working solution at 25 °C in the dark for a period of 12 h. After incubation, eggs were gently washed with tap water three times to facilitate compound removal and kept in darkness at 25 °C for 14 days. After this period, eggs were exposed to light for 2 h to stimulate the hatching of eggs. Then, hatched and unhatched eggs were evaluated and counted using an optical microscope. The term “hatched eggs” includes both hatched and embryonated eggs. Negative control eggs were incubated with 10 μL of DMSO in 990 μL of water, reaching a maximum DMSO concentration of 1% (v/v), while ABZ at 0.5 µM was used as positive control. Each compound at a specific concentration was tested in triplicate in the same EHT and repeated at least two different days.
The efficacy of each compound and drug was calculated as its ovicidal activity following the formula below: Ovicidal activity%=100×%eggs hatched in negative control-%egg hatched after drug incubation/%egg hatched in control.

[2] = test system: Fasciola hepatica adults (ABZ-resistant isolate); experiment: Adult viability test (AVT), motility inhibition; format: cell-based; settings: 10 µM, ABZ-resistant isolate; for inhibition at 10 µM: Fasciola hepatica, relative to motility score at 24 h
Description: The adult viability test was based on a previous study carried out by Kirchhofer et al. with minor modifications. In brief, adult F. hepatica flukes were recovered from bile ducts of infected sheep with the resistant isolate. Flukes were quickly washed with 0.9% (w/v) NaCl and placed in six-well plates (Costar, Spain) with RPMI 1640 culture medium (Sigma-Aldrich®, Spain) supplemented with antibiotics (50 μg/mL streptomycin and 50 IU/mL penicillin; Sigma-Aldrich®, Spain) and 80 μg/mL of a hemin solution at 37 °C.
To monitor the anthelmintic effect of BZDs and the commercial drug ABZ, two flukes per well were incubated up to 72 h at a final concentration of 10 µM. DMSO at 0.5% was used as negative control. The individual movement of each fluke was examined using an inverted microscope at 24, 48, and 72 h. The activity of the compounds was estimated as motility inhibition, using a scale of fluke viability ranging from 3 (normal movements) to 0 (death, no movement observed for 2 min). All tests were repeated at least twice at different days.
Additionally, the percentage of motility inhibition for each compound was calculated from […] to 48 and 72 h after treatment using the following formula: 100 × (mean of the motility score of BZD at 24 h − mean of the motility score of BZD at 48 or 72 h)/(mean of the motility score of BZD at 24 h).
For the AVT, statistical analysis was performed using GraphPad Prism version 8.0.2. The normality of the motility inhibition scores was assessed using the Shapiro–Wilk test. Then, differences among scores at the three time points (24, 48, and 72 h) were evaluated using the Friedman test. In cases where significant differences were observed, post hoc analysis was conducted using the Nemenyi test for multiple comparisons. Comparisons with a P value < 0.05 were considered statistically significant.

[3] = test system: Fasciola hepatica eggs (ABZ-susceptible isolate); experiment: Egg hatch test (EHT), ABZ-susceptible isolates; format: cell-based; settings: mean ± SEM; for % Ovicidal activity: ABZ-susceptible isolate; for killing at 5 µM: Fasciola hepatica, read-out: % Ovicidal activity susceptible isolate
In short: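 F. hepatica eggs from naturally infected cattle, ABZ-susceptible isolate, exposed 12 h at 25 °C in dark to compound (screen at 50 µM, actives retested at 10 µM; ≤1% DMSO). After washing and 14 days in dark at 25 °C, hatching triggered by 2 h light; ovicidal activity calculated relative to DMSO control.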

[4] = test system: Teladorsagia circumcincta eggs; settings: type II BZDs; read-out: IC50 against T. circumcincta eggs; cited from earlier work
[5] = read-out: % Adult motility inhibition 48 h
[6] = read-out: % Adult motility inhibition 72 h

| SMILES | % Ovicidal activity resistant isolate [1] | Motility inhibition of adults after 72 h of incubation (in words; significance vs 24 h) [2] | inhibition at 10 µM [2, 5] [%] | inhibition at 10 µM [2, 6] [%] | % Ovicidal activity ([3]; 10 µM) [%] | % Ovicidal activity ([3]; 10 µM, listed as BDZ-31) [%] | % Ovicidal activity ([3]; 10 µM, listed as BZD-31) [%] | % Ovicidal activity ([3]; 50 µM) [%] | % Ovicidal activity ([3]; 50 µM, listed as BZD-31) | killing at 5 µM [3] [%] | IC50 [4] [µM] | % Ovicidal activity resistant isolate ([1]; listed as BZD-46) | % Ovicidal activity ([3]; 50 µM, listed as BZD-46) | % Ovicidal activity resistant isolate ([1]; listed as BZD-56) | % Ovicidal activity ([3]; 10 µM, listed as BZD-56) [%] | % Ovicidal activity ([3]; 50 µM, listed as BZD-56) | % Ovicidal activity resistant isolate ([1]; listed as BZD-59) | % Ovicidal activity ([3]; 10 µM, listed as BZD-59) [%] | % Ovicidal activity ([3]; 50 µM, listed as BZD-59) |
| --- | --- | --- | --- | --- | --- | --- | --- | --- | --- | --- | --- | --- | --- | --- | --- | --- | --- | --- | --- |
| Cc1ccc2[nH]c(NCc3cccs3)nc2c1 [BZD31] | 53% and 53.24 ± 20.94% | significant reduction | 35.7 | 38.1 | 99.58 ± 00.26 | 99.5 | ≥ 80 | 100.00 ± 0.00 | higher than 80% | 74 | – | – | – | – | – | – | – | – | – |
| Cc1ccc2[nH]c(NC(=O)c3ccccc3)nc2c1 [BZD46] | 11.06 ± 05.30% | nor those with ABZSO or BZD46, exhibited any significant motility inhibition | 28.6 | 28.6 | 83.90 ± 02.87 | – | – | 98.59 ± 0.94 | – | 71.2 ± 9.91 | ~1 | below 13% | higher than 80% | – | – | – | – | – | – |
| COc1ccc2[nH]c(NC(=O)c3ccccc3)nc2c1 [BZD56] | 12.39 ± 03.71% | significant reduction | 53 | 51.5 | 93.93 ± 01.90 | – | – | 99.58 ± 0.22 | – | < 90 | ~1 | – | – | below 13% | ≥ 80 | higher than 80% | – | – | – |
| O=C(Nc1nc2cc(Cl)ccc2[nH]1)c1ccccc1 [BZD59] | 06.28 ± 05.20% | high motility inhibition; also recorded: significant reduction; also recorded: most potent compound; also recorded: most significant reduction in worm motility | 46.7 | 60 | 91.16 ± 02.58 | – | – | 100.00 ± 0.00 | – | 73.5 ± 8.88 | ~1 | – | – | – | – | – | below 13% | ≥ 80 | higher than 80% |
